Measurements published in ChEMBL document CHEMBL2176923, “Discovery of (5S,6S,9R)-5-amino-6-(2,3-difluorophenyl)-6,7,8,9-tetrahydro-5H-cyclohepta[b]pyridin-9-yl 4-(2-oxo-2,3-dihydro-1H-imidazo[4,5-b]pyridin-1-yl)piperidine-1-carboxylate (BMS-927711): an oral calcitonin gene-related peptide (CGRP) antagonist in clinical trials for treating migraine” (J Med Chem, 2012).
In brackets after ≈: the same amount, converted by molar mass. One block for each compound: values may come before it. Activity calls are given as the source filed them. The rule behind the calls is not given here.

Legend:
[1] = target: T1, Calcitonin gene-related peptide type 1 receptor (Homo sapiens, UniProt O60894+Q16602); test: Displacement of [125I]-CGRP from CGRP receptor in human SK-N-MC cells after 2 hrs by gamma scintillation counter analysis; assay type: cell-based
T1 sequence (Q16602 whole entry, one chain of several): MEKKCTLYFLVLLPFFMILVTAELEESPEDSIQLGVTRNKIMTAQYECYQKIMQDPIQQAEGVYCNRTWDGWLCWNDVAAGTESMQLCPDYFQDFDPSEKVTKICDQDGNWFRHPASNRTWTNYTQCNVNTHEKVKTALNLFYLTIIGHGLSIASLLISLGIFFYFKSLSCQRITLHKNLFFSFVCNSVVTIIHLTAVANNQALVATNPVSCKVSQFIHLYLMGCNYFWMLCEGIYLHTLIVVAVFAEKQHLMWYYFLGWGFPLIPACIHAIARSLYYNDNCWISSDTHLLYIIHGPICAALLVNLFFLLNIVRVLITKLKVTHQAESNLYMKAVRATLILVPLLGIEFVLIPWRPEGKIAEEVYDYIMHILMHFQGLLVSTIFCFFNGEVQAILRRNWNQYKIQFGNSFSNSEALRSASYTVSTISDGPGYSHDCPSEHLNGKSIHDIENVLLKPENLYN

[2] = Aqueous solubility of the compound in amorphous form; assay type: physicochemical
[3] = Half life in human liver microsomes; assay type: ADME, Microsome
[4] = Fraction unbound in human plasma; assay type: ADME, cell-free
Homo sapiens = organism: Homo sapiens; test: Toxicity in human up to 600 mg; assay type: organism-based; conditions: in vivo
Salmonella typhimurium = test: Genotoxicity in Salmonella typhimurium by Ames test; assay type: toxicity, organism-based; conditions: salmonella enterica subsp. enterica serovar typhimurium
[5] = target: Voltage-gated L-type calcium channel (Homo sapiens, UniProt Q13936+Q13698+Q01668+O60840); test: Inhibition of L type calcium channel expressed in HEK293 cells at 10 to 30 uM; assay type: cell-based
HEK293 = test: Inhibition of L type sodium channel expressed in HEK293 cells at 10 to 30 uM; assay type: cell-based; conditions: Homo sapiens
[6] = target: Voltage-gated inwardly rectifying potassium channel KCNH2 (Homo sapiens, UniProt Q12809); test: Inhibition of human ERG alpha subunit expressed in HEK293 cells at 10 to 30 uM; assay type: cell-based
Sequence of Voltage-gated inwardly rectifying potassium channel KCNH2 (Q12809 whole entry): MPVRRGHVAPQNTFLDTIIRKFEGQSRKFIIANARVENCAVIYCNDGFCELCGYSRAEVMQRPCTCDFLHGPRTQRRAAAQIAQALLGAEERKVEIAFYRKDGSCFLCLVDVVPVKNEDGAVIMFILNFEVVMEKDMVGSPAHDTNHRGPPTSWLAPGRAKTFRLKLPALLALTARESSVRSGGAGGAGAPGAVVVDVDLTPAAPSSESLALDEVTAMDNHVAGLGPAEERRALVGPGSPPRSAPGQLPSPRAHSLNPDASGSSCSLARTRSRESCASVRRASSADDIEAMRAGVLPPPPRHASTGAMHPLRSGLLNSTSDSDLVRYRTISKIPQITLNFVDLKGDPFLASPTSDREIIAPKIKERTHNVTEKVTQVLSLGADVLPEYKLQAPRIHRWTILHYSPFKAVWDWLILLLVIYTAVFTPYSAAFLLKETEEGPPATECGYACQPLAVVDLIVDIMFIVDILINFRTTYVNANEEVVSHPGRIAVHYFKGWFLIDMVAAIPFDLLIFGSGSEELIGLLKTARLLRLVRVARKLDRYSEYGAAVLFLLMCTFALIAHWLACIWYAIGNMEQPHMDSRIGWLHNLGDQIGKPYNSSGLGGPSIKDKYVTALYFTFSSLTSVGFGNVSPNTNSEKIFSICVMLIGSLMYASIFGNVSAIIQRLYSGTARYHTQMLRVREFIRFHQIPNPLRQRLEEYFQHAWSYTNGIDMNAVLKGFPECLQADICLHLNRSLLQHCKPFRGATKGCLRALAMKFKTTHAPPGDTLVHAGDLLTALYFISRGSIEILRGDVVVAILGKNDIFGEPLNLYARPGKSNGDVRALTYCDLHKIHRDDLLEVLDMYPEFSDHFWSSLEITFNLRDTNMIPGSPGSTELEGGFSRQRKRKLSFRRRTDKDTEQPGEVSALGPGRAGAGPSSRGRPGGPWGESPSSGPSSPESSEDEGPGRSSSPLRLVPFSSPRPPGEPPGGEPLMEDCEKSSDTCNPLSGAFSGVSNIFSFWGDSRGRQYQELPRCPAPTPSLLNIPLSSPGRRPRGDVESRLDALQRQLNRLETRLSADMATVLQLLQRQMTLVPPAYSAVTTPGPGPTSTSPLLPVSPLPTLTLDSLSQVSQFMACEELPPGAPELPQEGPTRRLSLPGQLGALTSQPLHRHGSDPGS

Cytochrome P450 2E1 = Cytochrome P450 2E1 (Homo sapiens, UniProt P05181); test: Inhibition of human recombinant CYP2E1 after 45 mins by fluorescence assay; assay type: ADME
Sequence of Cytochrome P450 2E1 (P05181 whole entry): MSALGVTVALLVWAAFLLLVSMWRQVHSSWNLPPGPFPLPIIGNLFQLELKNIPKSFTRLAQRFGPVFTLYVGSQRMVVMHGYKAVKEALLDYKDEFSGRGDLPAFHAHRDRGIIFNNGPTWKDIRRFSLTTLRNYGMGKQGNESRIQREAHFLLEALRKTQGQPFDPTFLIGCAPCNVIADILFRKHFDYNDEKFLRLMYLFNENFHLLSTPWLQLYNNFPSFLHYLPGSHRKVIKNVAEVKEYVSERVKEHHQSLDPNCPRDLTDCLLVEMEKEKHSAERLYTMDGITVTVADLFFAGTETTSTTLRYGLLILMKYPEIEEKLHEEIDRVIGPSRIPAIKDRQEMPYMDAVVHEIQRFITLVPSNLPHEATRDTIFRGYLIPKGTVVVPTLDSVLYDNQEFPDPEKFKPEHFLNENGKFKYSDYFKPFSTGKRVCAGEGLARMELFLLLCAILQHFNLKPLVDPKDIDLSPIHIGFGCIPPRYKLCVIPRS

Cytochrome P450 2B6 = target: T2, Cytochrome P450 2B6 (Homo sapiens, UniProt P20813); test: Inhibition of human recombinant CYP2B6 after 45 mins by fluorescence assay; assay type: ADME
T2 sequence (P20813 whole entry): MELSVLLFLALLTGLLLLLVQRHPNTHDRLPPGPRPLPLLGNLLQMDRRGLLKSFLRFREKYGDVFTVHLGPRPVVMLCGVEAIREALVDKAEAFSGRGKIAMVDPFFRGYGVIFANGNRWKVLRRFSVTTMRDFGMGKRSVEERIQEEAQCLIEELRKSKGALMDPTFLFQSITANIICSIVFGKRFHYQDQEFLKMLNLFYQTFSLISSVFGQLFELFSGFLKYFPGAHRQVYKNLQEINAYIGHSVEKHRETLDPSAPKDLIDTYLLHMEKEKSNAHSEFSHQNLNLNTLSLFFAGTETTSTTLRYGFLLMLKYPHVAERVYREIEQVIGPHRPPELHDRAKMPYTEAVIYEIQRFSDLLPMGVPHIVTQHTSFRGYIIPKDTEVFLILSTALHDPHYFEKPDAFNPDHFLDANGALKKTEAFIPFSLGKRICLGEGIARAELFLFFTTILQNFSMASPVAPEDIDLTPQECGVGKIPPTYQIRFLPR

Cytochrome P450 2A6 = target: T3, Cytochrome P450 2A6 (Homo sapiens, UniProt P11509); test: Inhibition of human recombinant CYP2A6 after 45 mins by fluorescence assay; assay type: ADME
T3 sequence (P11509 whole entry): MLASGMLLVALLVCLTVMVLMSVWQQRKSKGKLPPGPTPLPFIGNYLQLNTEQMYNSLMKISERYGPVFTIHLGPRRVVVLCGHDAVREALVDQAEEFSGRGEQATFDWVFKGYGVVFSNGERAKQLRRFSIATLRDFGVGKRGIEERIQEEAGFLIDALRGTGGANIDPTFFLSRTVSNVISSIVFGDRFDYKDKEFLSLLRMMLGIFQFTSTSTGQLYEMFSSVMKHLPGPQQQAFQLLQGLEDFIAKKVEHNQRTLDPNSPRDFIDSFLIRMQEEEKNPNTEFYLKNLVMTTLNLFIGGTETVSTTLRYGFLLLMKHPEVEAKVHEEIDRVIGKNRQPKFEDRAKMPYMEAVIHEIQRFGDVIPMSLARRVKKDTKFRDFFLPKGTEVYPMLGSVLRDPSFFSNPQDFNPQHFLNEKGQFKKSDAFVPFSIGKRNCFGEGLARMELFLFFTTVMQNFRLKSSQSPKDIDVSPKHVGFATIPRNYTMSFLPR

Cytochrome P450 2D6 = Cytochrome P450 2D6 (Homo sapiens, UniProt P10635); test: Inhibition of human recombinant CYP2D6 using 3-[2-(N,N-diethyl-Nmethylamino) ethyl]-7-methoxy-4-methylcoumarin as substrate after 45 mins by fluorescence assay; assay type: ADME
Sequence of Cytochrome P450 2D6 (P10635 whole entry): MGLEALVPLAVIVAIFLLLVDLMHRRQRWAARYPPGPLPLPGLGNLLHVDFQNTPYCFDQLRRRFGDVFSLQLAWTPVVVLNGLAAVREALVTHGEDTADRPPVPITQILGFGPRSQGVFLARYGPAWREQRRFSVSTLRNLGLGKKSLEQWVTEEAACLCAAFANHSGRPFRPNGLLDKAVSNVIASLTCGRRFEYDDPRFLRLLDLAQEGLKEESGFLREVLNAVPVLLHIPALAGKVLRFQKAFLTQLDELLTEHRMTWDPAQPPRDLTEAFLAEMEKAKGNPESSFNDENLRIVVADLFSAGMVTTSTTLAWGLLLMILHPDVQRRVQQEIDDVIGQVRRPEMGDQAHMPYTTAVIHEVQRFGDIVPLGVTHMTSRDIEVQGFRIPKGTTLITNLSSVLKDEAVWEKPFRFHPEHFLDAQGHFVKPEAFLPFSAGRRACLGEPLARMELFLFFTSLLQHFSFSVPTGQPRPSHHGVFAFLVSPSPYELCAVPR

Cytochrome P450 2C9 = Cytochrome P450 2C9 (Homo sapiens, UniProt P11712); test: Inhibition of human recombinant CYP2C9 using 7-methoxy-4-trifluoromethylcoumarin as substrate after 45 mins by fluorescence assay; assay type: ADME
Sequence of Cytochrome P450 2C9 (P11712 whole entry): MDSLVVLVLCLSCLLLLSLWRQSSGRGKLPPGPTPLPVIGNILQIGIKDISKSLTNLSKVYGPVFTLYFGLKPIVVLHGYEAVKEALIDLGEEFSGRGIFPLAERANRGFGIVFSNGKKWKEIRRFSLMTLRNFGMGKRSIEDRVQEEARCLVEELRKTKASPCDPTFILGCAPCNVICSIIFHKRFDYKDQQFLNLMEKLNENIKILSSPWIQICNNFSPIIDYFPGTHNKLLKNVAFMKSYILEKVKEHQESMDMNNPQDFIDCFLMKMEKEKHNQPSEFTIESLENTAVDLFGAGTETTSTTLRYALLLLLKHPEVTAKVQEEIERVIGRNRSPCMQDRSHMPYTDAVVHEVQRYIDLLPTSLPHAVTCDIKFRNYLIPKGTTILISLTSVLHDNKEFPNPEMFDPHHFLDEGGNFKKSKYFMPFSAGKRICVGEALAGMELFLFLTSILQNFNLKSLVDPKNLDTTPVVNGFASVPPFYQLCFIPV

Cytochrome P450 2C19 = Cytochrome P450 2C19 (Homo sapiens, UniProt P33261); test: Inhibition of human recombinant CYP2C19 using 3-cyano-7-ethoxycoumarine as substrate after 45 mins by fluorescence assay; assay type: ADME
Sequence of Cytochrome P450 2C19 (P33261 whole entry): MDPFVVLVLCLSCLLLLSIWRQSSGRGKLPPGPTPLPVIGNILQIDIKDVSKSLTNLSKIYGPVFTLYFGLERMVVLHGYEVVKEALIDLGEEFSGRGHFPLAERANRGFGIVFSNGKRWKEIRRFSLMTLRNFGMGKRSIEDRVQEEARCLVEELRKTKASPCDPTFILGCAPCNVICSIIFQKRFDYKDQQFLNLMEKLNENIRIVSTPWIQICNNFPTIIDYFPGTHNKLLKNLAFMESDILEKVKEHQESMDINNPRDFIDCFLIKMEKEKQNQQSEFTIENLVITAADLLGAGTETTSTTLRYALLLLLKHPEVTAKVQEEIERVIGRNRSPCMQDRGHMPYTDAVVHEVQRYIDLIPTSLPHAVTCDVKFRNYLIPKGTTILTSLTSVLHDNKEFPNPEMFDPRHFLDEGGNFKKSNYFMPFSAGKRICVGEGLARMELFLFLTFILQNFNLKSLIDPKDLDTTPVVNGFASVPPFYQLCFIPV

Cytochrome P450 1A2 = target: T4, Cytochrome P450 1A2 (Homo sapiens, UniProt P05177); test: Inhibition of human recombinant CYP1A2 using 3-cyano-7-ethoxycoumarine as substrate after 45 mins by fluorescence assay; assay type: ADME
T4 sequence (P05177 whole entry): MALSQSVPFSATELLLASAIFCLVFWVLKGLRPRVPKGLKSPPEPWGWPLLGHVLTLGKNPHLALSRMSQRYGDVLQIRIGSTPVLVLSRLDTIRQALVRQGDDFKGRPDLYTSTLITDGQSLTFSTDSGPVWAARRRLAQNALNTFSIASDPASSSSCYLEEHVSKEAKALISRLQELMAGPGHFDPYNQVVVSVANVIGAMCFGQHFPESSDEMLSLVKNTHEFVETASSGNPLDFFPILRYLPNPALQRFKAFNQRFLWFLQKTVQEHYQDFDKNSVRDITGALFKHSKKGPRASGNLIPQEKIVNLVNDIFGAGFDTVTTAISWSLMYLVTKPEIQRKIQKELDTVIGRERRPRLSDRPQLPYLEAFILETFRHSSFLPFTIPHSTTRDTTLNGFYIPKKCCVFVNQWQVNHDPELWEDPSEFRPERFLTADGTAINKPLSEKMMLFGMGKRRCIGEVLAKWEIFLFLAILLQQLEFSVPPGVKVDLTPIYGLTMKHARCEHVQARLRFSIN

[7] = Oral bioavailability in overnight fasted cynomolgus monkey at 10 mg/kg administered as suspension of crystalline free base; assay type: ADME, organism-based, Macaca fascicularis; conditions: in vivo
[8] = Oral bioavailability in overnight fasted cynomolgus monkey at 10 mg/kg administered as solution; assay type: ADME, organism-based, Macaca fascicularis; conditions: in vivo
[9] = Oral bioavailability in fasted Sprague-Dawley rat at 10 mg/kg administered as solution; assay type: ADME, organism-based; conditions: in vivo
[10] = Plasma concentration in Harlan marmoset at 7 mg/kg, sc after 60 to 105 mins; assay type: ADME, organism-based, Callithrix jacchus; design: dose 7 mg/kg, route subcutaneous; conditions: in vivo
[11] = Plasma concentration in Harlan marmoset at 7 mg/kg, sc at 15 mins; assay type: ADME, organism-based, Callithrix jacchus; design: dose 7 mg/kg, route subcutaneous
Callithrix jacchus [12] = test: Antagonist activity at CGRP receptor in Harlan marmoset assessed as inhibition of CGRP-induced facial blood flow at 7 mg/kg, sc administered 45 mins interval for 2 hrs post alphaCGRP challenge measured at 15 mins by laser droppler flowmetry relative to control; assay type: functional; conditions: route subcutaneous
Callithrix jacchus [13] = test: Antagonist activity at CGRP receptor in Harlan marmoset assessed as inhibition of alphaCGRP-induced facial blood flow at 7 mg/kg, sc administered 45 mins interval for 2 hrs post alphaCGRP challenge measured after 60 to 105 mins by laser droppler flowmetry relative to control; assay type: functional; conditions: route subcutaneous
[14] = Permeability of the compound at 100 uM at pH 7.4 after 4 hrs by PAMPA; assay type: ADME; conditions: read-out: permeability
[15] = Permeability of the compound at 100 uM at pH 5.5 after 4 hrs by PAMPA; assay type: ADME; conditions: read-out: permeability
[16] = Aqueous solubility of the compound in crystalline form; assay type: physicochemical
[17] = target: T1, Calcitonin gene-related peptide type 1 receptor; test: Antagonist activity at CGRP receptor in human SK-N-MC cells assessed as inhibition of CGRP-stimulated cAMP production preincubated for 15 mins prior to CGRP challenge measured after 30 mins by HTRF assay; assay type: functional, cell-based

Compound: O=C(O[C@@H]1CC[C@H](c2cccc(F)c2F)[C@H](O)c2cccnc21)N1CCC(n2c(=O)[nH]c3ncccc32)CC1 (mixture of isomers)
Ki [1]: 0.67 nM

Compound: N[C@@H]1c2cccnc2[C@H](OC(=O)N2CCC(n3c(=O)[nH]c4ncccc43)CC2)CC[C@H]1c1cccc(F)c1F [RIMEGEPANT]
Activity (Homo sapiens): Non-toxic
Activity (Salmonella typhimurium): Non-toxic
inhibition (INH) [5]: Not Active
inhibition (HEK293): inactive
inhibition (INH) [6]: < 30%
IC50 (Cytochrome P450 2E1): ≥ 20000 nM
IC50 (Cytochrome P450 2B6): ≥ 20000 nM
IC50 (Cytochrome P450 2A6): ≥ 20000 nM
IC50 (Cytochrome P450 2D6): ≥ 20000 nM
IC50 (Cytochrome P450 2C9): ≥ 20000 nM
IC50 (Cytochrome P450 2C19): ≥ 20000 nM
IC50 (Cytochrome P450 1A2): ≥ 20000 nM
bioavailability [7]: 48%
bioavailability [8]: 67%
bioavailability [9]: 45%
concentration [10]: < 800 nM
concentration at 0.25 h [11]: 400 nM
inhibition in vivo at 7 mg/kg (Callithrix jacchus [12]): > 65%
inhibition in vivo at 7 mg/kg (Callithrix jacchus [13]): 75%
Papp at 4 h, 100 µM [14]: 32 ×10⁻⁶ cm/s
Papp at 4 h, 100 µM [15]: 19 ×10⁻⁶ cm/s
half-life [3]: 1.38 h
solubility [16]: 50 µg/mL (≈ 93.5 µM)
fraction unbound [4]: 0.069
EC50 [17]: 0.14 nM
Ki [1]: 0.027 nM

Results, then the compound that gave them:

Ki [1]: 0.066 nM
Compound: [N-]=[N+]=N[C@@H]1c2cccnc2[C@H](OC(=O)N2CCC(n3c(=O)[nH]c4ncccc43)CC2)CC[C@H]1c1cccc(F)c1F

Ki [1]: 4.3 nM
Compound: O=C(O[C@@H]1CC[C@@H](c2cccc(F)c2F)[C@@H](O)c2cccnc21)N1CCC(n2c(=O)[nH]c3ncccc32)CC1

solubility [2]: 66 µg/mL (≈ 123 µM)
half-life [3]: 1.17 h
fraction unbound [4]: 0.041
Ki [1]: 0.081 nM
Compound: O=C(O[C@@H]1CC[C@@H](c2cccc(F)c2F)[C@H](O)c2cccnc21)N1CCC(n2c(=O)[nH]c3ncccc32)CC1
